Consider 2 molecules from patent US9186345B2 (priority 2004, dated 2015).

The subject of the series is plaque type psoriasis vulgaris. Kind of series: Simple-blind, own-control topical gel treatment of five psoriasis patients (Example 1). The series is classed as in vivo, human. An excerpt: The gel used was of the following composition:
Patients for the treatment of psoriasis (five patients) were chosen as having a relatively secure diagnosis of plaque type psoriasis vulgaris with silvery scales covering the surface of the lesion. This disease tends to be chronic, and often difficult to treat with topical agents. All of the five patients treated were diagnosed by a dermatologist and had the diagnosis for over three years. None of these patients had arthritis.
After a treatment, which may vary from two weeks to one month, there was a considerable improvement both scaling, size, thickness and erythematous appearance of the lesions. The lesions in these patients were all symmetric and each patient was treated with the formulation of the present invention without the active compound on one side and with the active compound on the other. Each patient was treated as their own control (simple blind).
Two patients were treated with galantamine and three patients with donepezil.

Where a name gives a salt, the structure may show the parent alone.

`COc1cc2c(cc1OC)C(=O)C(CC1CCN(Cc3ccccc3)CC1)C2` (centres unmarked) [donepezil, donepezil hydrochloride]: the adverse effect entry (human, in vivo) is reported as “no adverse effect was noticed”.

`COc1ccc2c3c1O[C@H]1C[C@@H](O)C=C[C@@]31CCN(C)C2` [galantamine, galantamine hydrobromide]: the adverse effect result (gel containing 0.1% active compound, two days twice daily) was “no adverse effect was noticed”.
